The subject of data set [1] is RDEB_L1 cells. The experiment in a line: RNAseq (HTPathwaySeq) transcriptomic profiling, GSEA. The data set is classed as cell-based, human. The settings on record: 24 h, 20 ng/mL TGFβ2, compound 7 and 8 at the highest concentrations tested of 100 and 300 µM. How it is done: The […]®) analysis was conducted at […], Belgium) using samples provided by Almirall. A total of 376 cell lysate samples representing 4 biological replicates of 94 samples were provided to […] in four 96-well plates. On each 96-well plate, two empty wells were allocated to include […] reference samples. Samples from the same biological group were distributed over the different plates to not confound inter-plate variability with biological signal. […] The compounds were evaluated in RDEB_L1 cells in the presence of 20 ng/mL TGFβ2 to mimic RDEB physiology and in normal human keratinocytes with no TGFβ2 treatment. Cells were treated during 24 h. Controls for RDEB_L1 cells not treated with TGFβ2 and RDEB_L1 and NHK cells treated with DMSO in the absence of compounds were also included. The conditions of the assay were identical to those described for the Real-time quantitative RT-PCR (see above). For the […], over 460 M reads were generated for 376 samples of interest, resulting in about 1.22 M reads per sample on average. […] is based on a 3'-end library preparation method, and gene body read coverage is concentrated towards the 3'-end of the genes. For quality control, a selection of lysate samples was checked for gDNA contamination and RNA content using qPCR before library preparation. RNA samples were processed to generate RNA-sequencing libraries using […] procedure based on the QuantSeq (Lexogen) 3'-end library preparation workflow. The quality of a selection of samples was assessed with the 2100 Bioanalyzer instrument (Agilent). Libraries were quantified using qPCR and pooled for single-end sequencing on a NextSeq 500 (Illumina) according to […] standard operating procedure. Raw reads were mapped to the human genome (hg38) and gene expression was quantified based on the Ensembl transcriptome annotation (version 85) using […]. Raw counts were normalized using […]2 prior to differential gene expression analysis. For each cell line, samples were clustered based on log-transformed normalized counts using tSNE. A perplexity parameter of 35 and a maximum number of 1000 iterations were applied. Genes with more than 10 normalized counts in at least 3 samples were used as input. Analysis was run in R (v3.2) with a fixed seed. […] For each contrast, genes ranked by fold change were used as input. PCA was applied on the fold changes of each compound vs their associated vehicle using the 500 genes with the greatest variance. Arrows connect the different incremental dosages used on each compound to observe their differentiation patterns. Pathway enrichment and PCA were performed using R v.3.2. Pathway enrichment was analyzed with cluster profile package. The procedure followed for the cell treatments of RDEB-L1 and NHEK, was the same as that used in the RT-qPCR study. Cell lysis and sample preparation were conducted according to […] instructions: Plates of treated cells were centrifuged for 5 min at 600 g at 4 °C, and the medium was carefully removed to avoid disturbing the cells. Then, cells were washed in PBS, centrifuged and the PBS was removed again. […] After checking that cells were lysed, the samples were transferred to 96-well PCR plates, and then sealed and stored at -80 °C to be sent to […].

Data set [2] has as its system truncated and full-length C7 in RDEB_L1, RDEB_L5 and HEK293^R578X cells. The experiment in a line: Western blot detection of truncated and full-length C7. The data set is classed as cell-based, human. The conditions noted are these: RDEB_L1 and HEK293^R578X cells; 50 μM compound 7, 50 μM chuangxinmycin, 100 μM 3-methyl-chuangxinmycin. The procedure:
For western blot, RDEB or normal human keratinocytes were lysed in protein extraction buffer (50 mM Tris–HCl [pH 7.5], 100 mM NaCl, 1% Nonidet P-40, and 4 mM EDTA) containing proteinase inhibitors cocktail (Complete Mini, EDTA free; Roche Diagnostics, Mannheim, Germany). Lysates were incubated for 30 min on ice and centrifuged at 15,000 g for 30 min at 4 °C. Supernatants were then collected and concentrated by ultrafiltration using Amicon Ultra columns (10 kDa; Millipore, Ireland). Protein concentrations were measured using the Bradford assay (Bio-Rad, Hercules, CA). For each sample, […] total protein was resolved on NuPAGE Novex 3%–8% Tris–Acetate gel electrophoresis (Invitrogen, Carlsbad, CA) and electrotransferred to nitrocellulose membranes (Invitrogen, Carlsbad, CA). For type VII collagen analysis, blots were probed with a monospecific polyclonal anti-C7 antibody (a generous gift from Dr. A. Nystrom, University of Freiburg). Invitrogen anti-MDH1 polyclonal antibody (PA550446, 1:1000) was used to detect MDH1. Standard antibodies against a reference protein were used as a loading control, as indicated. Visualization of the resulting signal was performed by incubating with horseradish peroxidase (HRP)- conjugated anti-rabbit antibody (Amersham, Burlington, MA) and West Pico Chemiluminescent Substrate (Pierce, Rockford, IL).
A general note: A western blot detects proteins with antibodies after separation by electrophoresis.

Data set [3] relates to total (truncated + full length) C7 in RDEB_L1 cells. Kind of data set: AlphaLISA quantification of total C7 in RDEB_L1 cells. The class given is cell-based, human. The settings on record: 20 ng/mL TGFß2; for EC50: Homo sapiens, total C7 AlphaLISA, 48 h, mean ± SD, read-out: Increase in C7 levels EC50(rel). The procedure: (§1) The AlphaLISA assay was developed in-house by using the biotin-conjugated rabbit polyclonal antibody anti-C7 (LSBio LS-298147) and conjugating the acceptor beads (PerkinElmer 6772001) to a monoclonal anti-Collagen type VII antibody produced in mouse, clone LH7.2 (Thermo MA5-13,432). Formulation of the mAb clone LH7.2 was exchanged to PBS and concentrated 5 × by using Amicon® Ultra-0.5 centrifugal filters up to 1 mg/ml. The conjugation procedure was carried out according to the protocol provided by PerkinElmer.
(§2) For compound treatment in RDEB patient-derived transformed keratinocytes, 5,000 cells were plated in 20 µL of supplemented KGM media containing 20 ng/mL TGFβ2 (SIGMA GF113) without GA-1000 in 384-well cell culture plates (Greiner 781098). The day after, 5 µL of test compounds prepared 5 × in supplemented KGM without GA-1000 were added over cells and incubated for 48 h at 37 °C and 5% CO2. For compound treatment in HEK293^R578X, 10,000 cells were plated in 20 μL of DMEM (High Glucose, 2 mM L-Glutamine, sodium pyruvate, and FBS 10%) in 384-well cell culture plates (Greiner 781,098,). The day after, 5 μL of test compounds prepared 5 × in DMEM complete medium were added over cells and incubated for 48 h at 37 °C and 5% CO2.
(§3) After the treatment process, 2.5 µL of RIPA buffer 10 x (Abcam ab156034) were added over the […] of cells for 20 min at room temperature to obtain a complete cell lysis. Then, 2 μL of sample (i.e., cell lysate with supernatant) were transferred to the AlphaLISA plate (PerkinElmer 6,059,340) containing […] of antibodies mixture ([…] of acceptor Beads-Ab and […] of biotin-rAb) prepared in AlphaLISA buffer 1 x (PerkinElmer AL00F). The reaction was incubated for 90 min at room temperature. Finally, 10 μL of […] of donor beads (PerkinElmer 6760002,) were added to the reaction under subdued light, mixed gently, and incubated for 3 h at room temperature. AlphaLISA signal was detected with an Envision microplate reader (Perkin Elmer) using the following setting: Filter: AlphaScreen, Excitation time: 180 ms, Integration time: 300 ms.
(§4) Statistical analyses were performed using GraphPad Prism v. 7.04 (La Jolla, California). Results are shown as mean ± SD of experimental replicates. Dose–response curves to assess compound treatment effect were plotted in a four-parameter logistic model. Relative EC50, representing the total drug concentration producing a 50% effect, was calculated in the four-parameter logistic equation. Comparisons of collagen protein and mRNA expression in different experimental conditions were made using ANOVA, followed by a post hoc test. statistical significance was considered with p values < 0.05.
(In general: In Alpha technology, singlet oxygen from a donor bead excites a nearby acceptor bead.)

The test system of data set [4] is total C7 in HEK293^R578X cells. The experiment in a line: AlphaLISA quantification of total C7 in recombinant HEK293^R578X cells. The data set is classed as cell-based, human. The settings on record: for Increase in C7 levels Emax, % vs baseline: at 100 µM. How it is done:
as §1, §2, §3, §4

The subject of data set [5] is total (truncated + full length) C7 in RDEB_L5 cells. Kind of data set: AlphaLISA quantification of total C7 in RDEB_L5 cells. The data set is classed as cell-based, human. The procedure:
as §1, §2, §3, §4

Data set [6] has as its system NHK cells. The experiment in a line: Cytotoxicity, ATP levels, normal human keratinocytes (NHK). The data set is classed as cell-based. The conditions noted are these: NHK cells, ATP levels, at 50 µM. How it is done: (§5) The viability of RDEB patient-derived cell lines or NHK was evaluated by measuring the ATP levels as an indirect readout of the potential cytotoxicity effect of compounds. Cells were plated and treated exactly with the same conditions as those followed in the AlphaLISA assay, described above. To measure ATP levels, cells were processed using the ATPlite™ 1step luminescence-based assay (PerkinElmer 6,016,731), following the manufacturer’s protocol. 25 μL of ATPlite™ reagent was added directly over cells and plates were covered with a sealing film and shaken for 25 min using a microtiter plate shaker. Luminescence was measured in a Luminoskan Ascent luminometer (Thermo Fisher Scientific). 10 μM of Staurosporine was used as a reference compound and control for the total cytotoxicity.

Experiment in data set [7]: as above
The class given is cell-based. The settings on record: human, normal human keratinocytes (NHK); NHK cells, ATP levels; read-out: Cytotox. IC50. The procedure: as §5

Data set [8] addresses T1, SAPK2α (Homo sapiens, UniProt Q16539).
T1 construct: Eurofins Pharma Discovery Services
The experiment in a line: Selectivity panel (Eurofins): p38/SAPK2α kinase. The data set is classed as biochemical. The conditions noted are these: Table 5, read-out: Selectivity % inhibition, SAPK2α.

Data set [9] deals with BZD. The experiment in a line: Selectivity panel (Eurofins): benzodiazepine receptor BZD. The class given is binding. The conditions noted are these: Table 5.
For data set [10], the target named is T2, A2A (Homo sapiens, UniProt P29274).
T2 construct: Eurofins Pharma Discovery Services
Kind of data set: Selectivity panel (Eurofins): A2A adenosine receptor. The class given is binding. The settings on record: Table 5, read-out: Selectivity % inhibition, A2A.

T2 sequence (P29274 whole entry): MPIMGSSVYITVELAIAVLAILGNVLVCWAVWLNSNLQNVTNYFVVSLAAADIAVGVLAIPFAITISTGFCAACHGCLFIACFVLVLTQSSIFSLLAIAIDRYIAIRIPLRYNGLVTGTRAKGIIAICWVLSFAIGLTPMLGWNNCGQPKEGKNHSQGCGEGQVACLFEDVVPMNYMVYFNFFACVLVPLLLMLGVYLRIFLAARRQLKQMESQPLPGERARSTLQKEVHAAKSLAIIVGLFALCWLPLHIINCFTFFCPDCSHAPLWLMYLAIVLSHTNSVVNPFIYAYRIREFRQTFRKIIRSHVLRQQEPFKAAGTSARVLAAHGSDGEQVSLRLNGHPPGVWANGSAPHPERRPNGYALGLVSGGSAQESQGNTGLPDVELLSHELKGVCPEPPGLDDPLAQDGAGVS
T1 sequence (Q16539 whole entry): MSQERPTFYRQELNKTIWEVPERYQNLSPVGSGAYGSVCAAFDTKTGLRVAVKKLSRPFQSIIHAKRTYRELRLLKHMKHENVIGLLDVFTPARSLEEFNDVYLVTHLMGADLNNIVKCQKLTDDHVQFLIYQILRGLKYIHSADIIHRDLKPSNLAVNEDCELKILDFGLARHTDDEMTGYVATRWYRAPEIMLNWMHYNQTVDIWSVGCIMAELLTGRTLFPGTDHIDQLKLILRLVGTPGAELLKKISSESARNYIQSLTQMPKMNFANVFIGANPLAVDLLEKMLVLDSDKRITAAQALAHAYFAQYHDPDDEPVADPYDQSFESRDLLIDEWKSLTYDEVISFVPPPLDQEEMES

`CC1(C)c2c[nH]c3cccc(c23)S[C@H]1C(=O)O` [3-methyl chuangxinmycin, 3-methyl-chuangxinmycin]: in [1], the “modulation of GO terms related to NMD, readthrough, translation and unfolded protein response” value was “Neither compound 1 nor chuangxinmycin nor 3-methyl-chuangxinmycin showed any impact on these pathways”. Further, in [2], the “C7 products induced, western blot” value is “partially upregulated full-length C7”. In addition, the EC50 (as a rule, the concentration that produces a half-maximal response) in [3] (RDEB_L1 cells) was found to be 42 µM; in data set [4] (Homo sapiens, total C7 AlphaLISA, 48 h, relative EC50, mean ± SD, read-out: Increase in C7 levels EC50), 4.6 µM. The “Increase in C7 levels Emax, % vs baseline” value (“Increase … % vs baseline” below) in data set [3] (RDEB_L1 cells, at 100 µM) stood at 105 ± 13 at 100 % vs baseline; in data set [4], 58 at 100 % vs baseline.

On to `C[C@H]1c2c[nH]c3cccc(c23)S[C@H]1C(=O)O` [Chuangxinmycin, chuangxinmycin], for which, in data set [1], the “modulation of GO terms related to NMD, readthrough, translation and unfolded protein response” value is reported as “Neither compound 1 nor chuangxinmycin nor 3-methyl-chuangxinmycin showed any impact on these pathways”. Moreover, the “C7 products induced, western blot” value in data set [2] is “partially upregulated full-length C7”. Further, the “Increase … % vs baseline” value in [3] (RDEB_L1 cells, at 50 µM) is listed as 22 ± 3 at 50 % vs baseline.

Regarding `Nc1ncc(-c2ccc3cnn(CCO)c3c2)nc1C(=O)NC1C2CC3CC1CC(O)(C3)C2` (centres unmarked) [Compound 3], the EC50 in data set [5] (Homo sapiens, total C7 AlphaLISA, 48 h, 20 ng/mL TGFß2, relative EC50, mean ± SD, read-out: Increase in C7 levels EC50) amounted to 3.1 ± 0.008 µM; in data set [3] (RDEB_L1 cells), 1.9 ± 0.12 µM. The “Increase … % vs baseline” value in [5] (at 1.25 µM, 20 ng/mL TGFß2) is given as 717 ± 229 at 1.25 % vs baseline; in [3] (RDEB_L1 cells, at 3.1 µM), 2083 ± 29 at 3.1 % vs baseline. Moreover, in [6], the “Cytotox. % inhibition of viability” value is recorded as 58% ± 13 at 50 (n=2).

Turning to `C#Cc1nc(-c2ccncc2)c(-c2ccco2)nc1N` [Compound 8], the “modulation of GO terms related to NMD, readthrough, translation and unfolded protein response” value in data set [1] is “modulating genes specifically related to cytoplasmic translation and the ribosome”. Besides, the IC50 (as a rule, the concentration that inhibits the measured activity by half) in data set [7] worked out at 31 ± 4.1 µM. In addition, the EC50 in data set [3] (RDEB_L1 cells) stood at 40 ± 13 µM. For the same molecule, the “Increase … % vs baseline” value in data set [3] (RDEB_L1 cells, at 100 µM) is 86 ± 13.9 at 100 % vs baseline; in data set [4] it was 10± 13 at 100 % vs baseline.

For `Nc1cnc(-c2ccncc2)c(-c2cccc(F)c2)n1` [Compound 10], the inhibition – broadly, the drop in the measured response relative to a control, in per cent – at 3 µM in [8] (at 3 μM) came out at 36%; in [10] (at 3 μM), 104%. For the same molecule, the values for the inhibition at 10 µM in [8] (at 10 μM) and in [10] (at 10 μM) were 162% and 103%, respectively. Moreover, the inhibition at 30 µM in data set [8] (at 30 μM) came out at 88%; in data set [10] (at 30 μM), 104%. Besides, the “Selectivity % inhibition, BZD” value is 0% in [9] (at 3 μM), 0% in data set [9] (at 10 μM) and 9% in data set [9] (at 30 μM). Also, the “Increase … % vs baseline” value in data set [3] (Table 5 SAR, at 50 μM) worked out at 2.1 ± 16 at 50 % vs baseline.

Values taken from paper PMC11329504, “Identification of novel small molecule-based strategies of COL7A1 upregulation and readthrough activity for the treatment of recessive dystrophic epidermolysis bullosa” (Scientific Reports, 2024).
